Broadly, the IC50 is the concentration at which inhibition is half-maximal. For orientation: solubility means the concentration that dissolves in the medium under given conditions.

The structures appear in SMILES notation. In brackets after ≈: the same amount, converted by molar mass.

The record followed here is ChEMBL document CHEMBL4673405, “Novel Linker Variants of Antileishmanial/Antitubercular 7-Substituted 2-Nitroimidazooxazines Offer Enhanced Solubility” (ACS Med Chem Lett, 2021).

The first data set has as its system MRC5. The experiment in a line: Cytotoxicity against human MRC5 cells assessed as reduction in cell viability measured after 72 hrs by resazurin assay. The class given is ADME, cell-based. To be noted: MRC5, 72 h. A general note: Resazurin is reduced to fluorescent resorufin, in cell work by metabolically active cells.
Take `CC1(CNC(=O)OCc2ccc(OC(F)(F)F)cc2)CCn2cc([N+](=O)[O-])nc2O1` (stereo not drawn): the IC50 was not below 40 µM.
Turning to `CN(CC1(C)CCn2cc([N+](=O)[O-])nc2O1)c1ccc(OC(F)(F)F)cc1` (stereo not drawn), the IC50 is not below 40 µM.
In the case of `O=[N+]([O-])c1cn2c(n1)OC(CNc1ccc(OC(F)(F)F)cc1)CC2` (stereo not drawn), the IC50 is not below 40 µM.
Take `CC1(COC(=O)NCc2ccc(OC(F)(F)F)cc2)CCn2cc([N+](=O)[O-])nc2O1` (stereo not drawn): the IC50 is not below 40 µM.
As for `CC1(COC(=O)Nc2ccccc2OC(F)(F)F)CCn2cc([N+](=O)[O-])nc2O1` (stereo not drawn), the IC50 is not below 40 µM.
With `CC1(CNS(=O)(=O)c2cccc(OC(F)(F)F)c2)CCn2cc([N+](=O)[O-])nc2O1` (stereo not drawn), the IC50 is not below 40 µM.
Consider `CC1(COCC(=O)Nc2ccc(OC(F)(F)F)cc2)CCn2cc([N+](=O)[O-])nc2O1` (stereo not drawn), for which the IC50 was not below 40 µM.
On to `CC1(CNc2ccc(Cl)cc2)CCn2cc([N+](=O)[O-])nc2O1` (stereo not drawn), for which the IC50 is not below 40 µM.
As to `CC1(COc2ccc(Cl)cc2)CCn2cc([N+](=O)[O-])nc2O1` (stereo not drawn), the IC50 was not below 40 µM.

For the next data set, the system named is Leishmania donovani. Put plainly: Antileishmanial activity against Leishmania donovani MHOM/ET/67/HU3 amastigotes infected in BALB/c mouse model of visceral leishmaniasis assessed as reduction in parasite burden in liver at 50 mg/kg, po administered once daily for 5 consecutive days starting after 7 days post-infection by microscopic analysis relative to control. Particulars: time 5 day. More on the design: scale not given: the % may be the effect or the level left. In kind it is functional.
Turning to `CN(CC1(C)CCn2cc([N+](=O)[O-])nc2O1)c1ccc(OC(F)(F)F)cc1` (stereo not drawn), the Activity is recorded as 58%.

Test system in a further data set: not listed separately
Put plainly: Aqueous solubility of the compound at pH 7 sonicated for 15 mins by HPLC analysis. To be noted: aqueous medium.
Take `CC1(CNC(=O)OCc2ccc(OC(F)(F)F)cc2)CCn2cc([N+](=O)[O-])nc2O1` (stereo not drawn): the solubility at 0.25 h is 28 µg/mL (≈ 65.1 µM).
`CN(CC1(C)CCn2cc([N+](=O)[O-])nc2O1)c1ccc(OC(F)(F)F)cc1` (stereo not drawn) showed a solubility at 0.25 h of 1.5 µg/mL (≈ 3.88 µM).
Turning to `CC1(COC(=O)NCc2ccc(OC(F)(F)F)cc2)CCn2cc([N+](=O)[O-])nc2O1` (stereo not drawn), the solubility at 0.25 h was determined as 117 µg/mL (≈ 272 µM).

Test system in another data set: not listed separately
The experiment in a line: Solubility of the compound in 0.1 M HCl at pH 1 sonicated for 15 mins by HPLC analysis.
Details: not given
The class given is physicochemical.
In turn, `CN(CC1(C)CCn2cc([N+](=O)[O-])nc2O1)c1ccc(OC(F)(F)F)cc1` (stereo not drawn) displayed a solubility at 0.25 h of 4.6 µg/mL (≈ 11.9 µM).

The next data set deals with Leishmania infantum. The experiment in a line: Antileishmanial activity against Leishmania infantum MHOM/MA(BE)/67 amastigotes infected in mouse peritoneal macrophages incubated for 5 days by Giemsa staining based assay. The class given is functional, organism-based. Particulars: MHOM/MA(BE)/67, Peritoneal macrophage, 120 h.
Regarding `CC1(CNC(=O)OCc2ccc(OC(F)(F)F)cc2)CCn2cc([N+](=O)[O-])nc2O1` (stereo not drawn), half-maximal inhibition (IC50) required 0.16 µM.
Still for that read-out and setting: the value for `CN(CC1(C)CCn2cc([N+](=O)[O-])nc2O1)c1ccc(OC(F)(F)F)cc1` (stereo not drawn) was 0.27 µM; that for `O=[N+]([O-])c1cn2c(n1)OC(CNc1ccc(OC(F)(F)F)cc1)CC2` (stereo not drawn) was 0.15 µM; that for `CC1(COC(=O)NCc2ccc(OC(F)(F)F)cc2)CCn2cc([N+](=O)[O-])nc2O1` (stereo not drawn) was 0.32 µM.
With `CC1(COC(=O)Nc2ccccc2OC(F)(F)F)CCn2cc([N+](=O)[O-])nc2O1` (stereo not drawn), inhibition was half-maximal at 0.64 µM (IC50).
In turn, `CC1(CNS(=O)(=O)c2cccc(OC(F)(F)F)c2)CCn2cc([N+](=O)[O-])nc2O1` (stereo not drawn) yielded an IC50 of 2 µM.
`CC1(COCC(=O)Nc2ccc(OC(F)(F)F)cc2)CCn2cc([N+](=O)[O-])nc2O1` (stereo not drawn): the IC50 amounted to 0.49 µM.
The molecule `CC1(CNc2ccc(Cl)cc2)CCn2cc([N+](=O)[O-])nc2O1` (stereo not drawn) had an IC50 of 0.29 µM.
On to `CC1(COc2ccc(Cl)cc2)CCn2cc([N+](=O)[O-])nc2O1` (stereo not drawn), for which the IC50 is 0.13 µM.
